Measurements published in patent US5514773A, “Depsipeptide derivatives, production thereof and use thereof” (Fujisawa Pharmaceutical Co., Ltd., priority 1992, dated 1996).

Key:
Type in all cases: in vivo
[1] = system: Nippostrongylus brasilienses; assay: Test 1: reduction of Nippostrongylus brasilienses in infected rats, oral administration; conditions: Wistar rats, oral on 7th, 8th and 9th day after infection, parasites in small intestines counted on 11th day
Method: (§1) The effect of parasiticides was examined with the rats which was infected by nematodes which are parasitic on rats, Nippostrongylus brasilienses.
(§2) Wistar strain rats (female 6 weeks old, 120-130 g weight) were […] by infecting them and giving them subcutaneous injections of 3000 infective larvae per rat.
(§3) Test compound of 50 mg was dissolved in 0.25 ml dimethylsulfoxide, 0.5% methylcellulose solution was added, and liquid volume was adjusted to be prescribed volume of 100, 10, 5, 2.5, 1.25, 1.0, 0.63, 0.32 mg/kg to utilize. After they were infected, on each 7th, 8th, and 9th day, the test compound was administered orally with above concentration. On the 11th day, the rat was dissected and the numbers of parasites in the small intestines were measured.
The given measurement was based to calculate the reduction rate from the percentage of the numbers of the parasites of unadministered rats (control). The result of it is shown in the […]

[2] = system: Nippostrongylus brasilienses; assay: Test 2: reduction of Nippostrongylus brasilienses in infected rats, subcutaneous administration; conditions: Wistar rats, otherwise as Test 1
Method: as §1, §2, §3
The given measurement was based to calculate the reduction rate from the percentage of the numbers of the parasites of unadministered rats (control). The result of it is shown in the
The reduction rate was calculated in a similar manner as Test 1 except when the test compound was subcutaneously administered to the rats instead of oral administration as in Test 1.

[3] = system: Strongyloides venezuelensis; assay: Test 3: Strongyloides venezuelensis in infected Mongolian gerbils, eggs in feces and worms recovered; conditions: oral once 20 mg/kg, group mean
Description: For 1 rat, the 5000 infective larvae of Strongyloides venezuelensis were infected percutaneously to one group (2 rats) of 8 weeks old Mongolian gerbils. On the 10th day after they were infected, the suspended test compound was orally administered once with the amount of established administration. The effect was judged according to the amount of the eggs in the feces or the numbers of worms in the intestinal tract. The measurement of the numbers of the eggs were taken from O ring method, and the numbers of the eggs (EPG) in 1 g of feces were counted on the day before, on the day, and on the 1st, 2nd, 3rd, and 4th day after the administration. The numbers of the parasites were measured by dissecting Mongolian gerbils the 4th day after the administration (on the 14th day after infection). The method of measurement was followed by releasing the parasites, which live in the small intestines, into saline solution over night, and the released parasites were set to be as numbers of worms recovered.

Q: With `CC(C)C[C@H]1C(=O)O[C@H](Cc2ccccc2)C(=O)N(C)[C@@H](CC(C)C)C(=O)O[C@H](C)C(=O)N(C)[C@@H](CC(C)C)C(=O)O[C@H](Cc2ccccc2)C(=O)N(C)[C@@H](CC(C)C)C(=O)O[C@H](C)C(=O)N1C` [PF1022] as the compound, how does the “Minimum Amount of Administration indicated by more than 95% of Reduction Rate” value [1] read?
A: 10 mg/kg

Q: What about the “Minimum Amount of Administration indicated by more than 95% of Reduction Rate” value [2] of the same compound?
A: > 100 mg/kg

Q: And the “Change in Numbers of Parasites' Number of Eggs in Feces (EPG/100)” value (“Change in Numbers” for short) ([3]; day 0 (starting day of administration))?
A: 1615 EPG/100

Q: What about the “Change in Numbers” value ([3]; day 1 after administration) of the same compound?
A: 581 EPG/100

Q: And the “Change in Numbers” value ([3]; day 2 after administration)?
A: 1563 EPG/100

Q: What about the “Change in Numbers” value ([3]; day 3 after administration) of the same compound?
A: 935 EPG/100

Q: And the “Change in Numbers” value ([3]; day 4 after administration)?
A: 1005 EPG/100

Q: What about the “Change in Numbers” value ([3]; day -2 (before administration)) of the same compound?
A: 332 EPG/100

Q: And the “Numbers of the Worms recovered” value ([3]; dissected 4th day after administration)?
A: 3088
